From patent US10584115B2, “Substituted pyridine and pyrazine BMI-1 inhibitors” (PTC Therapeutics, Inc., priority 2013, dated 2020)

The molecules below were run on Bmi-1 protein (assay: Sandwich ELISA Assay (Bmi-1 protein level in HT-1080 cells after compound treatment)). Conditions: Table 1, Bmi-1 sandwich ELISA, read-out: ELISA EC50 value for Bmi-1 protein.
Type: cell-based
In short: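 Sandwich ELISA quantified Bmi-1 protein against recombinant standard (125–8000 pg/mL), with lysates captured overnight at 4 °C and signal by HRP/TMB at 450 nm (570 nm reference). Lysates came from HT-1080 cells incubated 40–48 h with test compounds in 0.5% DMSO.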

| EC50 [nM] | SMILES |
| --- | --- |
| 10 to 100 | Cc1nc2ccccc2n1-c1cc(N)c(F)c(Nc2ccc(C(F)(F)F)cc2)n1 [compound 515, 3-fluoro-6-(2-methyl-1H-benzimidazol-1-yl)-N^2-[4-(trifluoromethyl)phenyl]pyridine-2,4-diamine] |
| 10 to 100 | Cc1nc2cc(F)c(F)cc2n1-c1c[n+]([O-])cc(Nc2ccc(OC(F)F)cc2)n1 [compound 516, N-[4-(difluoromethoxy)phenyl]-6-(5,6-difluoro-2-methyl-1H-benzimidazol-1-yl)pyrazin-2-amine 4-oxide] |
| 100 to 3000 | Cc1nc2ccccc2n1-c1cncc(Nc2ccc(C(F)(F)F)c(C#N)c2)n1 [compound 517, 5-{[6-(2-methyl-1H-benzimidazol-1-yl)pyrazin-2-yl]amino}-2-(trifluoromethyl)benzonitrile] |
| 10 to 100 | Cc1nc2ccccc2n1-c1cncc(Nc2ccc(C(F)(F)F)c(CO)c2)n1 [compound 519] |
| 1 to 10 | CCc1nn2ccccc2c1-c1cncc(Nc2ccc(C(F)(F)F)cc2)n1 [compound 520, 6-(2-ethylpyrazolo[1,5-a]pyridin-3-yl)-N-[4-(trifluoromethyl)phenyl]pyrazin-2-amine] |
| 1 to 10 | CCc1nn2ccccc2c1-c1cncc(Nc2ccc(OC(F)F)cc2)n1 [compound 521, N-[4-(difluoromethoxy)phenyl]-6-(2-ethylpyrazolo[1,5-a]pyridin-3-yl)pyrazin-2-amine] |
| 10 to 100 | CCc1nn2ccccc2c1-c1cncc(Nc2ccc(OC(F)F)c(F)c2)n1 [compound 522, N-[4-(difluoromethoxy)-3-fluorophenyl]-6-(2-ethylpyrazolo[1,5-a]pyridin-3-yl)pyrazin-2-amine] |
| 10 to 100 | CCc1nn2ccccc2c1-c1cncc(Nc2ccc(OC(F)(F)F)cc2)n1 [compound 523, 6-(2-ethylpyrazolo[1,5-a]pyridin-3-yl)-N-[4-(trifluoromethoxy)phenyl]pyrazin-2-amine] |
| 100 to 3000 | Cc1nc2ccccc2n1-c1cncc(Nc2ccc(C(F)(F)F)c(CN)c2)n1 [compound 524, N-[3-(aminomethyl)-4-(trifluoromethyl)phenyl]-6-(2-methyl-1H-benzimidazol-1-yl)pyrazin-2-amine] |
| 10 to 100 | Cc1nc2ccccc2n1-c1c[n+]([O-])cc(Nc2ccc(C(F)(F)F)cc2)n1 [compound 525, 6-(2-methyl-1H-benzimidazol-1-yl)-N-[4-(trifluoromethyl)phenyl]pyrazin-2-amine 4-oxide] |
| 10 to 100 | CCc1nn2ccccc2c1-c1cc(C#N)cc(Nc2ccc(C(F)(F)F)cc2)n1 [compound 526, 2-(2-ethylpyrazolo[1,5-a]pyridin-3-yl)-6-{[4-(trifluoromethyl)phenyl]amino}pyridine-4-carbonitrile] |
| 10 to 100 | CCc1nn2ccccc2c1-c1cc(C#N)cc(Nc2ccc(OC(F)F)cc2)n1 [compound 527, 2-{[4-(difluoromethoxy)phenyl]amino}-6-(2-ethylpyrazolo[1,5-a]pyridin-3-yl)pyridine-4-carbonitrile] |
| 10 to 100 | CCc1nn2ccccc2c1-c1cc(C#N)cc(Nc2ccc(OC(F)F)c(F)c2)n1 [compound 528, 2-{[4-(difluoromethoxy)-3-fluorophenyl]amino}-6-(2-ethylpyrazolo[1,5-a]pyridin-3-yl)pyridine-4-carbonitrile] |
| 100 to 3000 | CCc1nn2ccccc2c1-c1cc(C#N)cc(Nc2ccc(OC(F)(F)F)cc2)n1 [compound 529, 2-(2-ethylpyrazolo[1,5-a]pyridin-3-yl)-6-{[4-(trifluoromethoxy)phenyl]amino}pyridine-4-carbonitrile] |
| 10 to 100 | [O-][n+]1cc(Nc2ccc(OC(F)F)cc2)nc(-n2c(C3CC3)nc3cc(F)c(F)cc32)c1 [compound 530, 6-(2-cyclopropyl-5,6-difluoro-1H-benzimidazol-1-yl)-N-[4-(difluoromethoxy)phenyl]pyrazin-2-amine 4-oxide] |
| 10 to 100 | Cc1nc2ccccc2n1-c1c[n+]([O-])cc(Nc2ccc(OC(F)F)cc2)n1 [compound 531, N-[4-(difluoromethoxy)phenyl]-6-(2-methyl-1H-benzimidazol-1-yl)pyrazin-2-amine 4-oxide] |
| 10 to 100 | Cc1nc2ccc(F)cc2n1-c1c[n+]([O-])cc(Nc2ccc(C(F)(F)F)cc2)n1 [compound 532, 6-(6-fluoro-2-methyl-1H-benzimidazol-1-yl)-N-[4-(trifluoromethyl)phenyl]pyrazin-2-amine 4-oxide] |
| 10 to 100 | [O-][n+]1cc(Nc2ccc(C(F)(F)F)cc2)nc(-n2c(C3CC3)nc3ncc(F)cc32)c1 [compound 533, 6-(2-cyclopropyl-6-fluoro-1H-imidazo[4,5-b]pyridin-1-yl)-N-[4-(trifluoromethyl)phenyl]pyrazin-2-amine 4-oxide] |
| 10 to 100 | [O-][n+]1cc(Nc2ccc(C(F)(F)F)cc2)nc(-c2c(C(F)(F)F)nc3ccccn23)c1 [compound 534, 6-[2-(trifluoromethyl)imidazo[1,2-a]pyridin-3-yl]-N-[4-(trifluoromethyl)phenyl]pyrazin-2-amine 4-oxide] |

| EC50 [nM] | SMILES |
| --- | --- |
| 10 to 100 | Cc1nn2ccc(F)cc2c1-c1cncc(Nc2ccc(C(F)(F)F)cc2)n1 [compound 537, 6-(5-fluoro-2-methylpyrazolo[1,5-a]pyridin-3-yl)-N-[4-(trifluoromethyl)phenyl]pyrazin-2-amine] |
| 1 to 10 | [O-][n+]1cc(Nc2ccc(C(F)(F)F)cc2)nc(-c2c(C(F)(F)F)nc3ccc(F)cn23)c1 [compound 538, 6-[6-fluoro-2-(trifluoromethyl)imidazo[1,2-a]pyridin-3-yl]-N-[4-(trifluoromethyl)phenyl]pyrazin-2-amine 4-oxide] |
| 10 to 100 | CCc1nn2ccc(Cl)cc2c1-c1cncc(Nc2ccc(C(F)(F)F)cc2)n1 [compound 539, 6-(5-chloro-2-ethylpyrazolo[1,5-a]pyridin-3-yl)-N-[4-(trifluoromethyl)phenyl]pyrazin-2-amine] |
| < 1 | Cc1nc2ncc(Cl)cc2n1-c1cncc(Nc2ccc(OC(F)F)cc2)n1 [compound 540, 6-(6-chloro-2-methyl-1H-imidazo[4,5-b]pyridin-1-yl)-N-[4-(difluoromethoxy)phenyl]pyrazin-2-amine] |
| 1 to 10 | Cc1nc2ncc(Cl)cc2n1-c1cncc(Nc2ccc(OC(F)F)c(F)c2)n1 [compound 541, 6-(6-chloro-2-methyl-1H-imidazo[4,5-b]pyridin-1-yl)-N-[4-(difluoromethoxy)-3-fluorophenyl]pyrazin-2-amine] |
| 10 to 100 | Cc1nc2ncc(Cl)cc2n1-c1cncc(Nc2ccc(OC(F)(F)F)cc2)n1 [compound 542, 6-(6-chloro-2-methyl-1H-imidazo[4,5-b]pyridin-1-yl)-N-[4-(trifluoromethoxy)phenyl]pyrazin-2-amine] |
| 100 to 3000 | CCc1nc2ncc(Cl)cc2n1-c1cncc(Nc2ccc(C(F)(F)F)cc2)n1 [compound 543, 6-(6-chloro-2-ethyl-1H-imidazo[4,5-b]pyridin-1-yl)-N-[4-(trifluoromethyl)phenyl]pyrazin-2-amine] |
| < 1 | CCc1nc2ncc(Cl)cc2n1-c1cncc(Nc2ccc(OC(F)F)cc2)n1 [compound 544, 6-(6-chloro-2-ethyl-1H-imidazo[4,5-b]pyridin-1-yl)-N-[4-(difluoromethoxy)phenyl]pyrazin-2-amine] |
| 100 to 3000 | CCc1nc2ncc(Nc3ccc(OC(F)F)cc3)cc2n1-c1cncc(Nc2ccc(OC(F)F)cc2)n1 [compound 545, N-[4-(difluoromethoxy)phenyl]-1-(6-{[4-(difluoromethoxy)phenyl]amino}pyrazin-2-yl)-2-ethyl-1H-imidazo[4,5-b]pyridin-6-amine] |
| 1 to 10 | CCc1nc2ncc(Cl)cc2n1-c1cncc(Nc2ccc(OC(F)F)c(F)c2)n1 [compound 546, 6-(6-chloro-2-ethyl-1H-imidazo[4,5-b]pyridin-1-yl)-N-[4-(difluoromethoxy)-3-fluorophenyl]pyrazin-2-amine] |
| 100 to 3000 | Cc1nc2ncc(Nc3ccc(OC(F)F)cc3)cc2n1-c1cncc(Nc2ccc(OC(F)F)cc2)n1 [compound 547, N-[4-(difluoromethoxy)phenyl]-1-(6-{[4-(difluoromethoxy)phenyl]amino}pyrazin-2-yl)-2-methyl-1H-imidazo[4,5-b]pyridin-6-amine] |
| 10 to 100 | CCc1nc2ncc(Cl)cc2n1-c1cncc(Nc2ccc(OC(F)(F)F)cc2)n1 [compound 548, 6-(6-chloro-2-ethyl-1H-imidazo[4,5-b]pyridin-1-yl)-N-[4-(trifluoromethoxy)phenyl]pyrazin-2-amine] |
| 100 to 3000 | CCc1nc2ncc(Cl)cc2n1-c1cncc(Nc2ccccc2)n1 [compound 549] |
| 100 to 3000 | CCc1nc2ncc(Nc3ccc(OC(F)F)c(F)c3)cc2n1-c1cncc(Nc2ccc(OC(F)F)c(F)c2)n1 [compound 550, N-[4-(difluoromethoxy)-3-fluorophenyl]-1-(6-{[4-(difluoromethoxy)-3-fluorophenyl]amino}pyrazin-2-yl)-2-ethyl-1H-imidazo[4,5-b]pyridin-6-amine] |
| 1 to 10 | COc1ccc(Nc2cncc(-n3c(C)nc4ccc(F)cc43)n2)cc1 [compound 553, 6-(6-fluoro-2-methyl-1H-benzimidazol-1-yl)-N-(4-methoxyphenyl)pyrazin-2-amine] |
| 10 to 100 | Cc1nc2ccc(F)cc2n1-c1cncc(Nc2ccc(Cl)cc2)n1 [compound 554, N-(4-chlorophenyl)-6-(6-fluoro-2-methyl-1H-benzimidazol-1-yl)pyrazin-2-amine] |
| 100 to 3000 | COc1cccc(Nc2cncc(-n3c(C)nc4ccccc43)n2)c1 [compound 557, N-(3-methoxyphenyl)-6-(2-methyl-1H-benzimidazol-1-yl)pyrazin-2-amine] |
| 100 to 3000 | COc1cccc(Nc2cncc(-n3c(C)nc4ccc(F)cc43)n2)c1 [compound 559, 6-(6-fluoro-2-methyl-1H-benzimidazol-1-yl)-N-(3-methoxyphenyl)pyrazin-2-amine] |
| 1 to 10 | COc1ccc(Nc2cncc(-n3c(C)nc4ccccc43)n2)cc1 [compound 561, N-(4-methoxyphenyl)-6-(2-methyl-1H-benzimidazol-1-yl)pyrazin-2-amine] |
